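GI50 is the concentration that inhibits growth by half. TGI: concentration producing complete growth inhibition.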
Assays:
Assay in all cases: NCI anticancer screen, dose series, 384-well format; in the data active = GI50 below about 0.43 µM; inactive = the rest
786-0 renal = test system: 786-0 renal
A498 renal = test system: A498 renal
A549 NSCLC = test system: A549 NSCLC
ACHN renal = test system: ACHN renal
BT-549 breast = test system: BT-549 breast
CAKI-1 renal = test system: CAKI-1 renal
CCRF-CEM leukemia = test system: CCRF-CEM leukemia
COLO 205 colon = test system: COLO 205 colon
DU-145 prostate = test system: DU-145 prostate
EKVX NSCLC = test system: EKVX NSCLC
HCC-2998 colon = test system: HCC-2998 colon
HCT-116 colon = test system: HCT-116 colon
HCT-15 colon = test system: HCT-15 colon
HL-60(TB) leukemia = test system: HL-60(TB) leukemia
HOP-62 NSCLC = test system: HOP-62 NSCLC
HOP-92 NSCLC = test system: HOP-92 NSCLC
HS 578T breast = test system: HS 578T breast
HT29 colon = test system: HT29 colon
IGROV1 ovarian = test system: IGROV1 ovarian
KM12 colon = test system: KM12 colon
LOX IMVI melanoma = test system: LOX IMVI melanoma
M14 melanoma = test system: M14 melanoma
MALME-3M melanoma = test system: MALME-3M melanoma
MCF7 breast = test system: MCF7 breast
MDA-MB-231 breast = test system: MDA-MB-231 breast
MDA-MB-468 breast = test system: MDA-MB-468 breast
MOLT-4 leukemia = test system: MOLT-4 leukemia
NCI-H226 lung = test system: NCI-H226 lung
NCI-H23 lung = test system: NCI-H23 lung
NCI-H322M lung = test system: NCI-H322M lung
NCI-H460 NSCLC = test system: NCI-H460 NSCLC
NCI-H522 lung = test system: NCI-H522 lung
NCI/ADR-RES ovarian = test system: NCI/ADR-RES ovarian
OVCAR-3 ovarian = test system: OVCAR-3 ovarian
OVCAR-4 ovarian = test system: OVCAR-4 ovarian
OVCAR-5 ovarian = test system: OVCAR-5 ovarian
OVCAR-8 ovarian = test system: OVCAR-8 ovarian
PC-3 prostate = test system: PC-3 prostate
RPMI-8226 leukemia = test system: RPMI-8226 leukemia
RXF 393 renal = test system: RXF 393 renal
SF-268 CNS = test system: SF-268 CNS
SF-295 CNS = test system: SF-295 CNS
SF-539 CNS = test system: SF-539 CNS
SK-MEL-28 melanoma = test system: SK-MEL-28 melanoma
SK-OV-3 ovarian = test system: SK-OV-3 ovarian
SN12C renal = test system: SN12C renal
SNB-19 CNS = test system: SNB-19 CNS
SNB-75 CNS = test system: SNB-75 CNS
SR leukemia = test system: SR leukemia
SW-620 colon = test system: SW-620 colon
T-47D breast = test system: T-47D breast
TK-10 renal = test system: TK-10 renal
U251 glioblastoma = test system: U251 glioblastoma
UACC-62 melanoma = test system: UACC-62 melanoma
UO-31 renal = test system: UO-31 renal

COC(=O)N[C@@H](C)CNc1nccc(-c2cn(C(C)C)nc2-c2cc(Cl)cc(NS(C)(=O)=O)c2F)n1
40.8 µM: TGI (HS 578T breast)
39.7 µM: TGI (HCC-2998 colon)
40.2 µM: TGI (MDA-MB-231 breast)
> 73.3 µM: TGI (786-0 renal)
> 92.6 µM: TGI (A549 NSCLC)
active: GI50 (COLO 205 colon) < 0.01 µM | GI50 (HT29 colon) < 0.01 µM | GI50 (M14 melanoma) < 0.01 µM | GI50 (MALME-3M melanoma) < 0.01 µM | GI50 (SK-MEL-28 melanoma) < 0.01 µM | GI50 (UACC-62 melanoma) < 0.01 µM
> 71.9 µM: TGI (HCT-116 colon)
34.9 µM: TGI (RXF 393 renal)
23.6 µM: TGI (HT29 colon)
> 61.2 µM: TGI (LOX IMVI melanoma)
< 0.0175 µM: TGI (M14 melanoma)
65.9 µM: TGI (U251 glioblastoma)
inactive: GI50 (786-0 renal) 7.06 µM | GI50 (A498 renal) 1.13 µM | GI50 (A549 NSCLC) 16.3 µM | GI50 (ACHN renal) 3.54 µM | GI50 (BT-549 breast) 38.1 µM | GI50 (CAKI-1 renal) 0.728 µM | GI50 (CCRF-CEM leukemia) 42.2 µM | GI50 (DU-145 prostate) 6.7 µM | GI50 (EKVX NSCLC) 13.8 µM | GI50 (HCC-2998 colon) 11.9 µM | GI50 (HCT-116 colon) 1.92 µM | GI50 (HCT-15 colon) 9.03 µM | GI50 (HL-60(TB) leukemia) 2.06 µM | GI50 (HOP-62 NSCLC) 61.9 µM | GI50 (HOP-92 NSCLC) 7.13 µM | GI50 (HS 578T breast) 14.7 µM | GI50 (IGROV1 ovarian) 0.929 µM | GI50 (KM12 colon) 36.5 µM | GI50 (LOX IMVI melanoma) 0.498 µM | GI50 (MCF7 breast) > 100 µM | GI50 (MDA-MB-231 breast) 3.17 µM | GI50 (MDA-MB-468 breast) 11.5 µM | GI50 (MOLT-4 leukemia) 29.6 µM | GI50 (NCI-H226 lung) 37 µM | GI50 (NCI-H23 lung) 4.15 µM | GI50 (NCI-H322M lung) 6.15 µM | GI50 (NCI-H460 NSCLC) 32.5 µM | GI50 (NCI-H522 lung) 3.91 µM | GI50 (NCI/ADR-RES ovarian) > 100 µM | GI50 (OVCAR-3 ovarian) 48.8 µM | GI50 (OVCAR-4 ovarian) > 100 µM | GI50 (OVCAR-5 ovarian) 33.2 µM | GI50 (OVCAR-8 ovarian) 38.2 µM | GI50 (PC-3 prostate) 70.9 µM | GI50 (RPMI-8226 leukemia) > 100 µM | GI50 (RXF 393 renal) 6.32 µM | GI50 (SF-268 CNS) > 84.8 µM | GI50 (SF-295 CNS) 97.6 µM | GI50 (SF-539 CNS) 43.3 µM | GI50 (SK-OV-3 ovarian) 0.806 µM | GI50 (SN12C renal) 14.9 µM | GI50 (SNB-19 CNS) > 100 µM | GI50 (SNB-75 CNS) 14.8 µM | GI50 (SR leukemia) 6.45 µM | GI50 (SW-620 colon) 6.22 µM | GI50 (T-47D breast) > 20 µM | GI50 (TK-10 renal) 20.7 µM | GI50 (U251 glioblastoma) 17.2 µM | GI50 (UO-31 renal) 6.96 µM
20.6 µM: TGI (SR leukemia)
> 47.9 µM: TGI (CAKI-1 renal)
> 95.8 µM: TGI (NCI-H322M lung)
< 0.01 µM: TGI (MALME-3M melanoma) | TGI (SK-MEL-28 melanoma) | TGI (UACC-62 melanoma)
> 100 µM: TGI (A498 renal) | TGI (ACHN renal) | TGI (BT-549 breast) | TGI (CCRF-CEM leukemia) | TGI (DU-145 prostate) | TGI (EKVX NSCLC) | TGI (HCT-15 colon) | TGI (HOP-62 NSCLC) | TGI (HOP-92 NSCLC) | TGI (IGROV1 ovarian) | TGI (KM12 colon) | TGI (MCF7 breast) | TGI (MDA-MB-468 breast) | TGI (MOLT-4 leukemia) | TGI (NCI-H226 lung) | TGI (NCI-H23 lung) | TGI (NCI-H460 NSCLC) | TGI (NCI/ADR-RES ovarian) | TGI (OVCAR-3 ovarian) | TGI (OVCAR-4 ovarian) | TGI (OVCAR-5 ovarian) | TGI (OVCAR-8 ovarian) | TGI (PC-3 prostate) | TGI (RPMI-8226 leukemia) | TGI (SF-268 CNS) | TGI (SF-295 CNS) | TGI (SF-539 CNS) | TGI (SK-OV-3 ovarian) | TGI (SN12C renal) | TGI (SNB-19 CNS) | TGI (SNB-75 CNS) | TGI (T-47D breast) | TGI (TK-10 renal) | TGI (UO-31 renal)
97.9 µM: TGI (NCI-H522 lung)
6.91 µM: TGI (HL-60(TB) leukemia)
> 76.8 µM: TGI (SW-620 colon)
